Laboratory results taken from patent US7666414B2, “Methods for treating prostate cancer using modified antibodies to prostate-specific membrane antigen” (Cornell Research Foundation, Inc., priority 2001, dated 2010).
Where two headings read alike, the source gives them in different places.

How the values were obtained:
[1] = tested on: LNCaP cells tumor xenografts; assay: Murine J591-DM1 immunoconjugate in LNCaP xenografts; format: in vivo, BALB/c mice; settings: unconjugated, alone or with unconjugated mAb J591, intraperitoneal qday x 5 days
Method: Tumor xenografts of LNCaP cells were established in the right flank of BALB/c mice (5×10^6 cells injected subcutaneously). Animals were observed until tumors were visible (7-10 mm). Animals were then treated with PBS, unconjugated mAb J591, unconjugated DM1, both mAb J591 and DM1 but unconjugated, and J591-DM1 immunoconjugate (100, 200, 300, and 400 mcg/day intraperitoneal qday×5 days). The mAb J591 was modified to introduce dithiopyridyl groups and then conjugated to DM1 via a hindered disulfide bond, as described above. Unconjugated mAb J591 and DM1 were given in equimolar concentrations.
Tumor xenografts of both LNCaP cells (5×10^6 cells injected subcutaneously in the right flank) and PC3 cells (3×10^6 cells injected subcutaneously in the left flank) were established in BALB/c mice. Animals were observed until LNCaP tumors were visible (PC3 tumors were present but much smaller). Animals treated with J591-DM1 immunoconjugate: 300 mcg/day intraperitoneal qday×5 days
Tumor xenografts of LNCaP cells were established subcutaneously in the right flank of BALB/c mice. […]
All animals were photographed pre- and post-treatment and tagged for identification. Tumor volume was determined (length×width×depth) and closely followed. […]

[2] = tested on: PSMA-positive CWR22 xenografts; assay: Efficacy in PSMA-positive CWR22 xenografts; format: in vivo, C.B-17 scid mice
Method: (§1) Experiment: Male SCID mice were implanted by serial passage of CWR22 prostate tumor xenograft. […] All treatments were given intravenously. Tumor growth and animal health were continually monitored throughout the study with tumor growth measured every 3 days.
Experiment: Male C.B-17 SCID mice bearing CWR22 xenografts approximately 200 mm^3 in size received IV injections (200 μL constant volume) of the test articles according to the dose and schedule as shown in Table 22.
Male C.B-17 scid mice bearing CWR22 xenografts approximately 200 mm^3 in size received IV injections (200 μL constant volume) of the test articles according to the dose and schedule shown in the Table 23.
The objective of this study was to determine how much the dosing interval could be increased at this dosage before a loss of efficacy in terms of TGD would be observed. […] The growth delays for the other schedules were: q7d, 53.0 days; q21d, 48.0 days; and q28d, 26.9 days. Similar to other studies using the CWR22 xenograft model, no curative responses were observed, with all tumors eventually resuming growth (FIG. 18).
as §1, with “intravenously and on a schedule of every three days for 5 doses.” for “intravenously.”
as §1, with “intravenously and on a schedule of every seven days for 5 doses.” for “intravenously.”

[3] = tested on: PSMA-positive 22RV1 xenografts; assay: Efficacy in castrate or intact scid mice bearing androgen-independent 22RV1 xenograft; format: in vivo, C.B-17 scid mice; settings: 240 μg/kg, q3dX5
Method: Prostate tumors can be broadly classified as either androgen-dependent or androgen-independent. […] The 22RV1 cell line was originally developed as androgen-independent and can be grown as a xenograft in C.B-17 scid mice that have been left either intact or castrated. […] C.B-17 scid mice bearing CWR22 xenografts approximately 200 mm^3 in size received IV injections (200 μL constant volume) of the test articles according to the dosage and schedule shown in the Table 24.

[4] = tested on: CD-1 mice
From the text: Use of both mice and cynomolgus monkeys for nonclinical testing allowed comparison of exposure and toxicity across species on the basis of body surface area (mg/m^2), and thus aided in selecting the SSD for the proposed Phase 1 clinical trial.

Structure (SMILES): COc1cc2cc(c1Cl)N(C)C(=O)C[C@H](OC(=O)[C@H](C)N(C)C(=O)CCS)[C@]1(C)O[C@H]1[C@H](C)[C@@H]1C[C@@](O)(NC(=O)O1)[C@H](OC)/C=C/C=C(\C)C2 [DM1, reference compound]
- lethality [1]: died within 48 hours of treatment completion
- Tumor Growth Delay ([2]; Comparison II, 240 μg/kg, q3dX5): 9.5 days
- effect on CWR22 xenograft tumor growth ([2]; every three days for 5 doses, IV, equimolar to 14.5 mg/kg deJ591-DM1): some tumor growth delay
- Relative TGD (TGD of castrate mice/TGD of intact mice) [3]: 1.4
- Tumor Growth Delay ([3]; Castrate Mice): 9.1 days
- Tumor Growth Delay ([3]; Intact Mice): 6.3 days
- Degree of Toxicity and Major Target Organs ([4]; DM1 0.86 mg/m^2 (0.29 mg/kg), single IV, CD-1 mice): Slight mitosis/necrosis of epidermis
- Degree of Toxicity and Major Target Organs ([4]; DM1 1.62 mg/m^2 ([…]), single IV, CD-1 mice): Mild bone marrow myeloid
- mortality ([4]; DM1 8.64 mg/m^2 (2.88 mg/kg), single IV, CD-1 mice): 100% mortality attributed to severe
- elevated AST and ALT values ([4]; DM1 […]^2 (1.08 mg/kg), single IV, CD-1 mice): moderate mitosis/necrosis of liver; no
- STD ([4]; severely toxic dosage, single IV, CD-1 mice): 1.80 mg/kg
- toxicity compared to deJ591-DM1 at equimolar dosages ([4]; single IV administration): tended to be less toxic than deJ591-DM1 at lower dosages
- MTD ([4]; single IV, CD-1 mice): 1.08 mg/kg
